In patent publication US10005739B2, “Quinazolinone and isoquinolinone derivative” (CHUGAI SEIYAKU KABUSHIKI KAISHA, priority 2013, dated 2018) one finds IC50 data, which are given here for 40 compounds.

Where two headings read alike, the source gives them in different places.

What is called IC50 is the concentration at which inhibition is half-maximal.

The target of this assay is DDR1 (Homo sapiens (Human), UniProt Q08345). Briefly: Measurement of DDR1 enzyme inhibitory activity (phosphorylation of biotinylated peptide, time-resolved fluorescence). The assay is classed as biochemical. Conditions: read-out: DDR1 enzyme inhibition assay IC50. In outline:
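Baculovirus-expressed human DDR1 phosphorylated a biotinylated peptide, and inhibition of that phosphorylation was measured. Phosphopeptide was detected by time-resolved fluorescence using europium cryptate–labelled anti-phosphotyrosine antibody with streptavidin-XL665.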

[1] abbreviates: human DDR1 enzyme, biotinylated peptide phosphorylation.

DDR1, sequence (Q08345 19-913): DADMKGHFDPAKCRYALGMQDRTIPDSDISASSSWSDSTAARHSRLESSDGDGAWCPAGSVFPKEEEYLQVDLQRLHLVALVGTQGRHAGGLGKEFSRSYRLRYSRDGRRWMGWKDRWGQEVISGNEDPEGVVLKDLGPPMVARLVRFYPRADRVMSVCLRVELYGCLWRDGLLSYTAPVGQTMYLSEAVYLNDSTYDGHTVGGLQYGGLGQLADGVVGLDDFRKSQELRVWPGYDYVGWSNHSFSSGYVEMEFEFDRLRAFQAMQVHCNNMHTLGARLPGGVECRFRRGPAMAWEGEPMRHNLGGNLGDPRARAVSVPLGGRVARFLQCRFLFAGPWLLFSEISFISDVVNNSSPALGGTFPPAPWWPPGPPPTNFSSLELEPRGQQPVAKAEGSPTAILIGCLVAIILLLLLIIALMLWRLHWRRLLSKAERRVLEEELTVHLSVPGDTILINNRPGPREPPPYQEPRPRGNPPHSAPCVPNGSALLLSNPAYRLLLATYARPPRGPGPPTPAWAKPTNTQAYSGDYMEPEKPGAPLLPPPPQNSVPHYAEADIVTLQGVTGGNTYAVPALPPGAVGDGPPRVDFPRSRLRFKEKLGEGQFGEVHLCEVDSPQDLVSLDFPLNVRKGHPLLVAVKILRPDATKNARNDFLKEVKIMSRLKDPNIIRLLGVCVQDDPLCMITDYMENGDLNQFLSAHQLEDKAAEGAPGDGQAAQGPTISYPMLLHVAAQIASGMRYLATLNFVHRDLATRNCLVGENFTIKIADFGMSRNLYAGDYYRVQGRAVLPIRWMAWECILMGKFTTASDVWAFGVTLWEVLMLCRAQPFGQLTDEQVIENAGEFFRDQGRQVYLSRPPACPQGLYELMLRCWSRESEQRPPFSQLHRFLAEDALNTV

In the case of `CCS(=O)(=O)c1ccc(Cl)cc1Cn1cnc2cc(CN3CCC(N4CCCCC4)C3)c(Br)cc2c1=O` (stereo not shown) [Compound J-9, 6-Bromo-3-[(5-chloro-2-ethylsulfonylphenyl)methyl]-7-[(3-piperidin-1-ylpyrrolidin-1-yl)methyl]quinazolin-4-one], the IC50 was 120 nM.
Regarding `CCS(=O)(=O)c1ccc(Cl)cc1Nn1cnc2ccc(I)cc2c1=O` [Compound A-61, 3-(5-Chloro-2-ethylsulfonylanilino)-6-iodoquinazolin-4-one], under setting [1], the IC50 amounted to 290 nM.
Turning to `CCSc1ccc(Cl)cc1Nn1cnc2ccc(F)cc2c1=O` [Compound A-28, 3-(5-Chloro-2-ethylsulfanylanilino)-6-fluoroquinazolin-4-one], under setting [1], the IC50 turned out to be 88 nM.
For `CCS(=O)(=O)c1cc(Cl)c(Cl)cc1Nn1cnc2ccc(C(F)(F)F)cc2c1=O` [Compound C-41, 3-(4,5-Dichloro-2-ethylsulfonylanilino)-6-(trifluoromethyl)quinazolin-4-one], the 50% inhibitory concentration (IC50) under setting [1] worked out at 110 nM.
For `CCS(=O)(=O)c1ccc(Cl)cc1Nn1cnc2c(Br)cc(C)cc2c1=O` [Compound A-2, 8-Bromo-3-(5-chloro-2-ethylsulfonylanilino)-6-methylquinazolin-4-one], under setting [1], the IC50 was determined as 40 nM.
As for `CCSc1ccc(Cl)cc1Nn1cnc2c(-c3ccc(F)cc3)cc(C)cc2c1=O` [Compound A-3, 3-(5-Chloro-2-ethylsulfanylanilino)-8-(4-fluorophenyl)-6-methylquinazolin-4-one], the IC50 under setting [1] is 110 nM.
For `CCS(=O)(=O)c1ccc(C#N)cc1Nn1cnc2ccc(OC(F)(F)F)cc2c1=O` [Compound C-16, 4-Ethylsulfonyl-3-[[4-oxo-6-(trifluoromethoxy)quinazolin-3-yl]amino]benzonitrile], the 50% inhibitory concentration (IC50) under setting [1] amounted to 270 nM.
Still for that read-out and setting: with `CCS(=O)(=O)c1ccc(OC)cc1Nn1cnc2c(Br)cc(C(F)(F)F)cc2c1=O` [Compound C-30, 8-Bromo-3-(2-ethylsulfonyl-5-methoxyanilino)-6-(trifluoromethyl)quinazolin-4-one] the figure was 150 nM; with `CCS(=O)(=O)c1ccc(Cl)cc1Nn1cnc2ccc([N+](=O)[O-])cc2c1=O` [Compound A-57, 3-(5-Chloro-2-ethylsulfonylanilino)-6-nitroquinazolin-4-one], 120 nM.
In the case of `CCSc1ccc(Cl)cc1Nn1cnc2cc(Br)c(C)cc2c1=O` [Compound A-5, 7-Bromo-3-(5-chloro-2-ethylsulfanylanilino)-6-methylquinazolin-4-one], under setting [1], the IC50 stood at 880 nM.
For `CCOc1ccc(SCC)c(Nn2cnc3c(Br)cc(C(F)(F)F)cc3c2=O)c1` [Compound C-31, 8-Bromo-3-(5-ethoxy-2-ethylsulfanylanilino)-6-(trifluoromethyl)quinazolin-4-one], the IC50 under setting [1] came out at 330 nM.
In the case of `C#Cc1ccc(S(=O)(=O)CC)c(Nn2cnc3c(Br)cc(C(F)(F)F)cc3c2=O)c1` [Compound C-37, 8-Bromo-3-(2-ethylsulfonyl-5-ethynylanilino)-6-(trifluoromethyl)quinazolin-4-one], under setting [1], the IC50 was 240 nM.
`CCS(=O)(=O)c1ccc(Cl)cc1Cn1cnc2cc(CN3CC[C@H](N)C3)c(Br)cc2c1=O` [Compound J-8, 7-[[(3S)-3-Aminopyrrolidin-1-yl]methyl]-6-bromo-3-[(5-chloro-2-ethylsulfonylphenyl)methyl]quinazolin-4-one]: the IC50 stood at 140 nM.
As to `CCSc1ccc(Br)cc1Nn1cnc2c(Br)cc(C(F)(F)F)cc2c1=O` [Compound C-25, 8-Bromo-3-(5-bromo-2-ethylsulfanylanilino)-6-(trifluoromethyl)quinazolin-4-one], under setting [1], the IC50 was found to be 180 nM.
Same read-out and setting: next, `CCS(=O)(=O)c1cc(Cl)c(C#N)cc1Nn1cnc2ccc(C(F)(F)F)cc2c1=O` [Compound C-43, 2-Chloro-4-ethylsulfonyl-5-[[4-oxo-6-(trifluoromethyl)quinazolin-3-yl]amino]benzonitrile]: 330 nM.
On the same count and under the same terms, next, `CC(C)Cc1ccc(Cl)cc1Nn1cnc2ccc(OC(F)(F)F)cc2c1=O` [Compound B-19, 3-[5-Chloro-2-(2-methylpropyl)anilino]-6-(trifluoromethoxy)quinazolin-4-one]: 330 nM.
The same measure, in the same setting: with `CCSc1ccc(Cl)cc1Nn1cnc2ncc(C(F)(F)F)cc2c1=O` [Compound A-23, 3-(5-Chloro-2-ethylsulfanylanilino)-6-(trifluoromethyl)pyrido[2,3-d]pyrimidin-4-one] the figure was 160 nM; with `CCS(=O)(=O)c1ccc(Cl)cc1Cn1cnc2cc(C)c(Br)cc2c1=O` [Compound E-6, 6-Bromo-3-[(5-chloro-2-ethylsulfonylphenyl)methyl]--7-methylquinazolin-4-one], 1100 nM; with `CCS(=O)(=O)c1ccc(Cl)cc1Nn1cnc2ccc(F)cc2c1=O` [Compound A-29, 3-(5-Chloro-2-ethylsulfonylanilino)-6-fluoroquinazolin-4-one], 340 nM.
As for `CCS(=O)(=O)c1ccc(Cl)cc1Nn1cnc2ncc(C#N)cc2c1=O` [Compound A-18, 3-(5-Chloro-2-ethylsulfonylanilino)-4-oxopyrido[2,3-d]pyrimidine-6-carbonitrile], the IC50 under setting [1] worked out at 1710 nM.
`CCSc1ccc(Cl)cc1Nn1cnc2cnc(Cl)cc2c1=O` [Compound A-14, 6-Chloro-3-(5-chloro-2-ethylsulfanylanilino)pyrido[3,4-d]pyrimidin-4-one]: the IC50 under setting [1] came out at 130 nM.
Consider `CCSc1ccc(C#N)cc1Nn1cnc2cc(Br)c(OC(F)(F)F)cc2c1=O` [Compound C-17, 3-[[7-Bromo-4-oxo-6-(trifluoromethoxy)quinazolin-3-yl]amino]-4-ethylsulfanylbenzonitrile], for which the IC50 under setting [1] was found to be 230 nM.
For the compound `CCSc1ccc(Cl)cc1Nn1cnc2cc(OC)c(OC)cc2c1=O` [Compound A-38, 3-(5-Chloro-2-ethylsulfanylanilino)-6,7-dimethoxyquinazolin-4-one], the IC50 under setting [1] is 480 nM.
The same measure, in the same setting: with `CCS(=O)(=O)c1ccc(C#N)cc1Nn1cnc2cc(Br)c(OC(F)(F)F)cc2c1=O` [Compound C-18, 3-[[7-bromo-4-oxo-6-(trifluoromethoxy)quinazolin-3-yl]amino]-4-ethylsulfonylbenzonitrile] the figure was 430 nM.
Still for that read-out and setting: with `CCS(=O)(=O)c1ccc([N+](=O)[O-])cc1Cn1ccc2ccc(OC(F)(F)F)cc2c1=O` [Compound F-9, 2-[(2-Ethylsulfonyl-5-nitrophenyl)methyl]-7-(trifluoromethoxy)isoquinolin-1-one] the figure was 810 nM; with `CCS(=O)(=O)c1ccc(C#N)cc1Nn1cnc2cc(CN3CCOCC3)c(OC(F)(F)F)cc2c1=O` [Compound G-8, 4-Ethylsulfonyl-3-[[7-(morpholin-4-ylmethyl)-4-oxo-6-(trifluoromethoxy)quinazolin-3-yl]amino]benzonitrile], 680 nM; with `CCSc1cc(Cl)c(Cl)cc1Nn1cnc2ccc(C(F)(F)F)cc2c1=O` [Compound C-40, 3-(4,5-Dichloro-2-ethylsulfanylanilino)-6-(trifluoromethyl)quinazolin-4-one], 190 nM.
Regarding `CCSc1ccc(C#N)cc1Nn1cnc2c(Br)cc(C(F)(F)F)cc2c1=O` [Compound C-11, 3-[[8-Bromo-4-oxo-6-(trifluoromethyl)quinazolin-3-yl]amino]-4-ethylsulfanylbenzonitrile], the IC50 under setting [1] was 110 nM.
In the case of `CCSc1ccc(Cl)cc1Nn1cnc2ccc(OC)cc2c1=O` [Compound A-34, 3-(5-Chloro-2-ethylsulfanylanilino)-6-methoxyquinazolin-4-one], under setting [1], the IC50 turned out to be 68 nM.
Still for that read-out and setting: next, `CCSc1ccc(Cl)cc1Nn1cnc2cnc(OC)cc2c1=O` [Compound A-21, 3-(5-Chloro-2-ethylsulfanylanilino)-6-methoxypyrido[3,4-d]pyrimidin-4-one]: 270 nM.
`CCS(=O)(=O)c1ccc(Cl)cc1Nn1cnc2cnc(F)cc2c1=O` [Compound A-20, 3-(5-Chloro-2-ethylsulfonylanilino)-6-fluoropyrido[3,4-d]pyrimidin-4-one]: under setting [1], the IC50 was found to be 7640 nM.
Take `CCS(=O)(=O)c1ccc(Cl)cc1Cn1cnc2c(Br)c(CN3CCNCC3)c(Br)cc2c1=O` [Compound L-11, 6,8-Dibromo-3-[(5-chloro-2-ethylsulfonylphenyl)methyl]-7-(piperazin-1-ylmethyl)quinazolin-4-one]: the IC50 turned out to be 90 nM.
Turning to `CCCSc1ccc(Cl)cc1Nn1cnc2c(Br)cc(C)cc2c1=O` [Compound B-3, 8-Bromo-3-(5-chloro-2-propylsulfanylanilino)-6-methylquinazolin-4-one], the IC50 under setting [1] amounted to 140 nM.
Turning to `CCSc1ccc(Cl)cc1Nn1cnc2ccc(CC)cc2c1=O` [Compound A-52, 3-(5-Chloro-2-ethylsulfanylanilino)-6-ethylquinazolin-4-one], under setting [1], the IC50 was found to be 200 nM.
`CCS(=O)(=O)c1ccc(C#N)cc1Nn1cnc2cc(CN3CCNCC3)c(Br)cc2c1=O` [Compound H-41, 3-[[6-Bromo-4-oxo-7-(piperazin-1-ylmethyl)quinazolin-3-yl]amino]-4-ethylsulfonylbenzonitrile]: under setting [1], the IC50 worked out at 250 nM.
On to `C=Cc1ccc2ncn(Nc3cc(Cl)ccc3S(=O)(=O)CC)c(=O)c2c1` [Compound A-64, 3-(5-Chloro-2-ethylsulfonylanilino)-6-ethenylquinazolin-4-one], for which the IC50 under setting [1] was found to be 200 nM.
On to `CCS(=O)(=O)c1ccc(C(F)(F)F)cc1Nn1cnc2c(Br)cc(C(F)(F)F)cc2c1=O` [Compound C-35, 8-Bromo-3-[2-ethylsulfonyl-5-(trifluoromethyl)anilino]-6-(trifluoromethyl)quinazolin-4-one], for which the IC50 under setting [1] is 210 nM.
In the case of `CCSc1ccc(C#N)cc1Nn1cnc2c(Br)cc(C)cc2c1=O` [Compound C-1, 3-[(8-Bromo-6-methyl-4-oxoquinazolin-3-yl)amino]-4-ethylsulfanylbenzonitrile], under setting [1], the IC50 came out at 110 nM.
The same measure, in the same setting: next, `CCCc1ccc2ncn(Nc3cc(Cl)ccc3S(=O)(=O)CC)c(=O)c2c1` [Compound A-55, 3-(5-Chloro-2-ethylsulfonylanilino)-6-propylquinazolin-4-one]: 240 nM; `CCSc1ccc(Cl)cc1Nn1cnc2ccc(N)cc2c1=O` [Compound A-59, 6-Amino-3-(5-chloro-2-ethylsulfanylanilino)quinazolin-4-one]: 480 nM.
